Laboratory results: patent publication US9637490B2, “Antifungal 5,6-dihydro-4-[(difluoroethyl)phenyl]-4H-pyrrolo[1,2-α][1,4]benzodiazepine and 4-(difluoroethyl)phenyl-6H-pyrrolo[1,2-α][1,4]benzodiazepine derivatives” (Janssen Pharmaceutica NV, priority 2010, dated 2017)

What was measured:
[1] = In vivo pharmacokinetic determinations (bioavailability) in guinea pigs; conditions: guinea pig
Description: (§1) Three animals (mean weight 20±7 g for mice and 275±20 for Guinea pigs) were used per dose route, time point and formulation.
(§2) For the oral (PO) solution formulation, compound was dissolved in a 20% hydroxypropyl-β-cyclodextrin (HP-β-CD) solution at a final concentration of 1 mg/ml. HCl was added to facilitate dissolution. After dissolution, the pH was brought up to 3.7 with NaOH. Mannitol was added to make the solution isotonic. For the PO suspension formulation, compound was suspended in 0.5% methocel at a final concentration of 1 mg/ml. The formulations were stored at room temperature, protected from light and analysed quantitatively with LC-MS/MS on the day of preparation. Stability of the formulations was checked on the day of dosing.
(§3) The animals were dosed orally by gastric intubation at 10 ml/kg to obtain a final dose 10 mg/kg. Three dosed animals were sacrificed for blood sampling at 15 and 30 min, 1, 2, 3, 4, 6, 8 and 24 h after PO dose administration as a solution and at 30 min, 1, 2, 4, 6, 8 and 24 h after PO dose administration as a suspension.
(§4) Blood was collected by multiple sampling from a tail vein into Multivette® 600 K3E tubes (Sarstedt). Samples were placed immediately at approximately 4° C. and plasma was obtained following centrifugation at 4° C. for 10 minutes at approximately 1900×g. All samples were shielded from daylight and stored at ≦−18° C. prior to analysis.
(§5) Plasma samples were analysed for dosed compound using a qualified research LC-MS/MS method. The key analytical performance (linearity, upper and lower limit of quantification, accuracy and precision) of the method was reported together with the plasma concentrations.
(§6) A limited pharmacokinetic analysis was performed using WinNonlin™ Professional (Version 5.2.1). A non-compartmental analysis using the lin/log trapezoidal rule with lin/log interpolation was used for all data.

[2] = system: Sporothrix schenkii B62482; assay: Antifungal activity in vitro (resazurin susceptibility screen), Inf. A; type: cell-based; conditions: Sporothrix, B62482, Sporothrix schenkii B62482; 27 °C, 4 days, resa time 24 hours
How it was run: (§7)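 Compounds were tested in 2- or 4-fold serial dilution up to 64 μM against cryopreserved isolates (10^3 cfu/well) in RPMI-1640 with L-glutamine, 2% glucose and MOPS pH 7.0. Incubation ran 24 h at 37° C for yeasts to a week or more at 27° C for dermatophytes; growth was read by resazurin fluorescence (ex 550/em 590 nm).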

Microsporum canis B68128 = assay: Antifungal activity in vitro (resazurin susceptibility screen), Inf. B; type: cell-based; conditions: Microsporum canis, B68128, Microsporum canis B68128; 27 °C, 9 days, resa time 24 hours
How it was run: as §7

[3] = system: Trichophyton rubrum B68183; assay: Antifungal activity in vitro (resazurin susceptibility screen), Inf. C; type: cell-based; conditions: Trichophyton rubrum, B68183, Trichophyton rubrum B68183; 27 °C, 7 days, resa time 24 hours
How it was run: as §7

[4] = system: Candida parapsilosis B66126; assay: Antifungal activity in vitro (resazurin susceptibility screen), Inf. D; type: cell-based; conditions: Lodderomyces parapsilosis, B66126, Candida parapsilosis B66126; 37 °C, 24 hours, resa time 4 hours
How it was run: as §7

[5] = system: Aspergillus fumigatus B42928; assay: Antifungal activity in vitro (resazurin susceptibility screen), Inf. E; type: cell-based; conditions: Aspergillus fumigatus, B42928, Aspergillus fumigatus B42928; 27 °C, 48 hours, resa time 17 hours
How it was run: as §7

[6] = system: Cryptococcus neoformans B66663; assay: Antifungal activity in vitro (resazurin susceptibility screen), Inf. F; type: cell-based; conditions: Cryptococcus neoformans, B66663, Cryptococcus neoformans B66663; 37 °C, 24 hours, resa time 4 hours
How it was run: as §7

[7] = system: Trichophyton mentagrophytes B70554; assay: Antifungal activity in vitro (resazurin susceptibility screen), Inf. G; type: cell-based; conditions: Trichophyton mentagrophytes, B70554, Trichophyton mentagrophytes B70554; 27 °C, 7 days, resa time 24 hours
How it was run: as §7

[8] = system: Scedosporium apiospermum IHEM3817; assay: Antifungal activity in vitro (resazurin susceptibility screen), Inf. H; type: cell-based; conditions: Scedosporium apiospermum, IHEM3817, Scedosporium apiospermum IHEM3817; 37 °C, 48 hours, resa time 17 hours
How it was run: as §7

[9] = system: Scedosporium prolificans IHEM21157; assay: Antifungal activity in vitro (resazurin susceptibility screen), Inf. I; type: cell-based; conditions: Lomentospora prolificans, 37 °C, 48 hours, resa time 17 hours
How it was run: as §7

Rhizopus oryzae IHEM5223 = assay: Antifungal activity in vitro (resazurin susceptibility screen), Inf. J; type: cell-based; conditions: Rhizopus arrhizus, 37 °C, 24 hours, resa time 6 hours
How it was run: as §7

[10] = system: Rhizomucor miehei IHEM13391; assay: Antifungal activity in vitro (resazurin susceptibility screen), Inf. K; type: cell-based; conditions: Rhizomucor miehei, IHEM13391, Rhizomucor miehei IHEM13391; 37 °C, 48 hours, resa time 17 hours
How it was run: as §7

[11] = system: Mucor circinelloides IHEM21105; assay: Antifungal activity in vitro (resazurin susceptibility screen), Inf. L; type: cell-based; conditions: 27 °C, 48 hours, resa time 17 hours
How it was run: as §7

in vivo = assay: in vivo; design: species or system mice; conditions: mouse, po
Description: as §1, §2, §3, §4, §5, §6

[12] = system: Microsporum canis (strain B68128); assay: Test D.4.1: activity against M. canis in guinea-pigs after oral treatment for 7 consecutive days; type: in vivo; design: key to semi-quantitative lesion score (mean): lesion score 0–3.5 by severity and size of lesion; conditions: oral 10 mg/kg once daily for 7 days
Description: The animals used in the tests described below were female Guinea pigs (Duncan-Hartley, Charles River, 200 g). These animals were kept in groups of 2 or 3 in cages of 56×33×20 cm^3. Food pellets (Carfil Quality) and water were available ad libitum in addition to a small daily amount of hay. Standard husbandry conditions were adopted: room temperature: 22° C., humidity level: 60% and a day-night cycle of 12 h.
For the preparation of inoculums, Microsporum canis (strain B68128) was grown on Sabouraud Dextrose Agar (SDA) plates for at least one week (7-10 days) before infection (27° C.). On the day of infection, spores were harvested by adding 4-5 ml sterile water on the plate and suspending the infectious material with a bend Pasteur pipette. From the recollected fluid, 10 μl was added to a KOVA counting chamber for determination of the number of spores in 1 square (average of several squares). If needed, additional dilutions (10× or 100×) were prepared. The average number of spores in one square×dilution×90.000=cfu/ml. An inoculum of 1×10^7 cfu/ml was prepared in a honey-water mixture (50%-50%).
In the tests described below, semi-quantitative lesion scores were given based on different clinical parameters. Scores between 0 and 3.5 were assigned based on the severity and size of the lesion. The criteria are listed in detail in Table 6.
The dorsum of the guinea pigs was shaved and further depilated for 3 minutes with Veet® creme before scarification with a steel brush. An inoculum of 10^6 cfu in 150 μl (75 mQ+75 μl honey) was applied to the wound using a micropipette with disposable tips. The animal was kept immobilized until the inoculum had completely dried. […]
vehicle: methocel 0.5%, Tween 80® (polysorbate 80), demineralised water reference compound: itraconazole at 6.25 mg/ml test compounds: prepared at 25 mg/ml, subsequently further diluted
Oral treatment (gavage 0.16 ml/100 g once daily) was started about 2 hours before infection and continued once daily for 7 consecutive days. The animals were weighed after 3 days of treatment to adjust for the dose.
Developments of lesions were evaluated following the semi-quantitative lesion scoring system (see Table 6) on days 3, 5, 7, 10, 12, 14, 17 and 20. The results are show in Table 7 (“DPI” means days post infection). Reported values in Table 7 are mean values.

| IC50 [2] [µM] | IC50 (Microsporum canis B68128) [µM] | IC50 [3] [µM] | IC50 [4] [µM] | IC50 [5] [µM] | IC50 [6] [µM] | IC50 [7] [µM] | IC50 [8] [µM] | IC50 [9] [µM] | IC50 (Rhizopus oryzae IHEM5223) [µM] | IC50 [10] [µM] | IC50 [11] [µM] | bioavailability (in vivo; 10 mg/kg) [%] | bioavailability ([1]; po, 10 mg/kg) [%] | SMILES | also measured |
| --- | --- | --- | --- | --- | --- | --- | --- | --- | --- | --- | --- | --- | --- | --- | --- |
| 11 | 3.98 | 1 | > 64.6 | 7.94 | 0.871 | 12.9 | 9.55 | 6.03 | > 64.6 | > 64.6 | > 64.6 | – | – | CC(F)(F)c1ccc(C2=NCc3c(Cl)cc(Cl)cc3-n3cccc32)cc1 [Compound 9, 7,9-dichloro-4-[4-(1,1-difluoroethyl)phenyl]-6H-pyrrolo[1,2-a][1,4]benzodiazepine] | bioavailability (in vivo): 100%; Bioavailability in guinea pigs (result in words) [1]: Bioavailability in guinea pigs: not soluble |
| – | – | – | – | – | – | – | – | – | – | – | – | 19 | 14 | CN(C/C=C/C#CC(C)(C)C)Cc1cccc2ccccc12 [Terbinafine, reference compound] | semi-quantitative lesion score (mean) ([12]; 3 DPI): 0; semi-quantitative lesion score (mean) ([12]; 5 DPI): 0; semi-quantitative lesion score (mean) ([12]; 7 DPI): 0.08; semi-quantitative lesion score (mean) ([12]; 10 DPI): 0.33; semi-quantitative lesion score (mean) ([12]; 12 DPI): 0.80; semi-quantitative lesion score (mean) ([12]; 14 DPI): 0.75; semi-quantitative lesion score (mean) ([12]; 17 DPI): 0.50; semi-quantitative lesion score (mean) ([12]; 20 DPI): 0.42 |

The remaining lines, values behind:

| SMILES | IC50 [2] [µM] | IC50 (Microsporum canis B68128) [µM] | IC50 [3] [µM] | IC50 [4] [µM] | IC50 [5] [µM] | IC50 [6] [µM] | IC50 [7] [µM] | IC50 [8] [µM] | IC50 [9] [µM] | IC50 (Rhizopus oryzae IHEM5223) [µM] | IC50 [10] [µM] | IC50 [11] [µM] | bioavailability (in vivo; 10 mg/kg) [%] | bioavailability ([1]; po, 10 mg/kg) [%] | also measured |
| --- | --- | --- | --- | --- | --- | --- | --- | --- | --- | --- | --- | --- | --- | --- | --- |
| CCc1ccc(C2=NCc3ccc(Cl)cc3-n3cccc32)cc1 [Compound 23 of WO02/34752, reference compound] | – | – | – | – | – | – | – | – | – | – | – | – | – | – | bioavailability ([1]; PO 40 mg/kg, IV 2.5 mg/kg, read-out: Bioavailability in guinea pigs): 7% |
| CC(F)(F)c1ccc(C2=NCc3ccc(Cl)cc3-n3cccc32)cc1 [Compound 17, 9-chloro-4-[4-(1,1-difluoroethyl)phenyl]-6H-pyrrolo[1,2-a][1,4]benzodiazepine] | 5.62 | 2.63 | 0.457 | 2.45 | 0.55 | 0.324 | 1.62 | > 64.6 | 0.759 | 8.32 | > 64.6 | > 64.6 | – | 70 | melting point: 115.3 °C (dec.) |
| CCc1ccc(C2=NCc3c(Cl)cccc3-n3cccc32)cc1 [Compound 22 of WO02/34752, reference compound] | – | – | – | – | – | – | – | – | – | – | – | – | 11 | – | bioavailability ([1]; po): 2.7% |
